Data: PubChem BioAssay (NCI)
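All cell lines were grown in 96-well plates and treated with compound for 48 hours. GI50 marks 50% less growth. Definition used: TGI = concentration required for complete inhibition of growth.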

Key:
Assay in all cases: DTP human tumour cell line panel, 48 h; in the data active = GI50 below about 0.43 µM; inactive = the rest
A498 renal = tested on: A498 renal
SK-OV-3 ovarian = tested on: SK-OV-3 ovarian
MOLT-4 leukemia = tested on: MOLT-4 leukemia
HCT-15 colon = tested on: HCT-15 colon
SF-539 CNS = tested on: SF-539 CNS
NCI-H460 lung = tested on: NCI-H460 lung
DU-145 prostate = tested on: DU-145 prostate
HOP-62 NSCLC = tested on: HOP-62 NSCLC
ACHN renal = tested on: ACHN renal
UACC-62 melanoma = tested on: UACC-62 melanoma
NCI/ADR-RES ovarian = tested on: NCI/ADR-RES ovarian
T-47D breast = tested on: T-47D breast
BT-549 breast = tested on: BT-549 breast
M14 melanoma = tested on: M14 melanoma
CCRF-CEM leukemia = tested on: CCRF-CEM leukemia
SW-620 colon = tested on: SW-620 colon
SN12C renal = tested on: SN12C renal
OVCAR-8 ovarian = tested on: OVCAR-8 ovarian
HT29 colon = tested on: HT29 colon
MCF7 breast = tested on: MCF7 breast
HCC-2998 colon = tested on: HCC-2998 colon
786-0 renal = tested on: 786-0 renal
SK-MEL-28 melanoma = tested on: SK-MEL-28 melanoma
NCI-H23 lung = tested on: NCI-H23 lung
NCI-H226 lung = tested on: NCI-H226 lung
U251 CNS = tested on: U251 CNS
UO-31 renal = tested on: UO-31 renal
RPMI-8226 leukemia = tested on: RPMI-8226 leukemia
HOP-92 NSCLC = tested on: HOP-92 NSCLC
HL-60(TB) leukemia = tested on: HL-60(TB) leukemia
NCI-H522 lung = tested on: NCI-H522 lung
LOX IMVI melanoma = tested on: LOX IMVI melanoma
EKVX NSCLC = tested on: EKVX NSCLC
SF-268 CNS = tested on: SF-268 CNS
SR leukemia = tested on: SR leukemia
TK-10 renal = tested on: TK-10 renal
SK-MEL-2 melanoma = tested on: SK-MEL-2 melanoma
SF-295 CNS = tested on: SF-295 CNS
OVCAR-5 ovarian = tested on: OVCAR-5 ovarian
K-562 leukemia = tested on: K-562 leukemia
SNB-75 CNS = tested on: SNB-75 CNS
HS 578T breast = tested on: HS 578T breast
HCT-116 colon = tested on: HCT-116 colon
A549 NSCLC = tested on: A549 NSCLC
UACC-257 melanoma = tested on: UACC-257 melanoma
OVCAR-3 ovarian = tested on: OVCAR-3 ovarian
IGROV1 ovarian = tested on: IGROV1 ovarian
MALME-3M melanoma = tested on: MALME-3M melanoma
COLO 205 colon = tested on: COLO 205 colon
MDA-MB-435 = tested on: MDA-MB-435
MDA-MB-231 breast = tested on: MDA-MB-231 breast
PC-3 prostate = tested on: PC-3 prostate
SK-MEL-5 melanoma = tested on: SK-MEL-5 melanoma
CAKI-1 renal = tested on: CAKI-1 renal
OVCAR-4 ovarian = tested on: OVCAR-4 ovarian
KM12 colon = tested on: KM12 colon
SNB-19 CNS = tested on: SNB-19 CNS
RXF 393 renal = tested on: RXF 393 renal

COc1ccc2c(c1)C(c1cc(OC)c3c(c1)OCO3)C1=C(COC1=O)N2 (centres undefined)
active: GI50 (A498 renal) 105 nM | GI50 (SK-OV-3 ovarian) 305 nM | GI50 (SF-539 CNS) 318 nM | GI50 (NCI-H460 lung) 348 nM | GI50 (DU-145 prostate) 397 nM | GI50 (HOP-62 NSCLC) 397 nM | GI50 (UACC-62 melanoma) 98.4 nM | GI50 (NCI/ADR-RES ovarian) 292 nM | GI50 (M14 melanoma) 233 nM | GI50 (CCRF-CEM leukemia) 382 nM | GI50 (SW-620 colon) 373 nM | GI50 (HT29 colon) 325 nM | GI50 (MCF7 breast) 261 nM | GI50 (SK-MEL-28 melanoma) 360 nM | GI50 (NCI-H23 lung) 346 nM | GI50 (NCI-H226 lung) 389 nM | GI50 (U251 CNS) 419 nM | GI50 (HL-60(TB) leukemia) 285 nM | GI50 (NCI-H522 lung) 39 nM | GI50 (SR leukemia) 183 nM | GI50 (SK-MEL-2 melanoma) 347 nM | GI50 (SF-295 CNS) 91.9 nM | GI50 (K-562 leukemia) 264 nM | GI50 (SNB-75 CNS) 381 nM | GI50 (HS 578T breast) 214 nM | GI50 (HCT-116 colon) 417 nM | GI50 (OVCAR-3 ovarian) 205 nM | GI50 (COLO 205 colon) 277 nM | GI50 (MDA-MB-435) 49 nM | GI50 (PC-3 prostate) 356 nM | GI50 (SK-MEL-5 melanoma) 262 nM | GI50 (KM12 colon) 227 nM
1480 nM: TGI (A498 renal)
> 65100 nM: TGI (HCT-15 colon)
713 nM: TGI (COLO 205 colon)
> 79400 nM: TGI (HS 578T breast)
287 nM: TGI (MDA-MB-435)
> 77200 nM: TGI (TK-10 renal)
> 100000 nM: TGI (MOLT-4 leukemia) | TGI (ACHN renal) | TGI (UACC-62 melanoma) | TGI (T-47D breast) | TGI (BT-549 breast) | TGI (CCRF-CEM leukemia) | TGI (SW-620 colon) | TGI (SN12C renal) | TGI (SK-MEL-28 melanoma) | TGI (UO-31 renal) | TGI (RPMI-8226 leukemia) | TGI (HOP-92 NSCLC) | TGI (LOX IMVI melanoma) | TGI (EKVX NSCLC) | TGI (SR leukemia) | TGI (OVCAR-5 ovarian) | TGI (K-562 leukemia) | TGI (A549 NSCLC) | TGI (UACC-257 melanoma) | TGI (MALME-3M melanoma) | TGI (PC-3 prostate) | TGI (CAKI-1 renal) | TGI (OVCAR-4 ovarian) | TGI (SNB-19 CNS)
232 nM: TGI (NCI-H522 lung)
1900 nM: TGI (SK-MEL-5 melanoma)
1070 nM: TGI (HL-60(TB) leukemia)
3250 nM: TGI (KM12 colon)
> 34800 nM: TGI (HCT-116 colon)
> 36000 nM: TGI (786-0 renal)
> 89200 nM: TGI (SF-268 CNS)
> 44800 nM: TGI (SK-MEL-2 melanoma)
27300 nM: TGI (MCF7 breast)
7360 nM: TGI (SK-OV-3 ovarian)
inactive: GI50 (MOLT-4 leukemia) 510 nM | GI50 (HCT-15 colon) 472 nM | GI50 (ACHN renal) 1570 nM | GI50 (T-47D breast) 6670 nM | GI50 (BT-549 breast) 2080 nM | GI50 (SN12C renal) 684 nM | GI50 (OVCAR-8 ovarian) 504 nM | GI50 (HCC-2998 colon) 432 nM | GI50 (786-0 renal) 469 nM | GI50 (UO-31 renal) 5050 nM | GI50 (RPMI-8226 leukemia) 461 nM | GI50 (HOP-92 NSCLC) 23300 nM | GI50 (LOX IMVI melanoma) 660 nM | GI50 (EKVX NSCLC) 3440 nM | GI50 (SF-268 CNS) 691 nM | GI50 (OVCAR-5 ovarian) 629 nM | GI50 (A549 NSCLC) 445 nM | GI50 (IGROV1 ovarian) 687 nM | GI50 (MDA-MB-231 breast) 654 nM | GI50 (CAKI-1 renal) 769 nM | GI50 (OVCAR-4 ovarian) 1280 nM | GI50 (SNB-19 CNS) 468 nM
> 47900 nM: TGI (U251 CNS)
37600 nM: TGI (SNB-75 CNS)
> 84500 nM: TGI (IGROV1 ovarian)
> 20400 nM: TGI (NCI-H460 lung)
> 47500 nM: TGI (HOP-62 NSCLC)
> 64900 nM: TGI (NCI-H23 lung)
> 40700 nM: TGI (OVCAR-8 ovarian)
4800 nM: TGI (NCI-H226 lung)
3160 nM: TGI (DU-145 prostate)
> 39800 nM: TGI (MDA-MB-231 breast)
742 nM: TGI (M14 melanoma)
> 34000 nM: TGI (SF-295 CNS)
481 nM: TGI (OVCAR-3 ovarian)

NC(=O)c1cc(Br)ccc1NC(=O)/C=C/c1ccccc1
28700 nM: TGI (BT-549 breast)
9970 nM: TGI (CCRF-CEM leukemia)
> 23600 nM: TGI (SK-OV-3 ovarian)
4210 nM: TGI (OVCAR-3 ovarian)
> 39500 nM: TGI (COLO 205 colon)
6270 nM: TGI (HS 578T breast)
> 100000 nM: TGI (HCT-15 colon) | TGI (NCI-H460 lung) | TGI (DU-145 prostate) | TGI (ACHN renal) | TGI (UACC-62 melanoma) | TGI (T-47D breast) | TGI (M14 melanoma) | TGI (SW-620 colon) | TGI (SN12C renal) | TGI (OVCAR-8 ovarian) | TGI (HT29 colon) | TGI (MCF7 breast) | TGI (HCC-2998 colon) | TGI (SK-MEL-28 melanoma) | TGI (NCI-H23 lung) | TGI (NCI-H226 lung) | TGI (UO-31 renal) | TGI (RPMI-8226 leukemia) | TGI (LOX IMVI melanoma) | TGI (EKVX NSCLC) | TGI (SR leukemia) | TGI (OVCAR-5 ovarian) | TGI (HCT-116 colon) | TGI (A549 NSCLC) | TGI (UACC-257 melanoma) | TGI (IGROV1 ovarian) | TGI (MALME-3M melanoma) | TGI (PC-3 prostate) | TGI (CAKI-1 renal) | TGI (OVCAR-4 ovarian) | TGI (KM12 colon)
5900 nM: TGI (RXF 393 renal)
inactive: GI50 (A498 renal) 1660 nM | GI50 (SK-OV-3 ovarian) 3680 nM | GI50 (MOLT-4 leukemia) 4020 nM | GI50 (HCT-15 colon) 1380 nM | GI50 (SF-539 CNS) 1240 nM | GI50 (NCI-H460 lung) 1420 nM | GI50 (DU-145 prostate) 2300 nM | GI50 (HOP-62 NSCLC) 5470 nM | GI50 (ACHN renal) 6450 nM | GI50 (UACC-62 melanoma) 1240 nM | GI50 (T-47D breast) 3510 nM | GI50 (BT-549 breast) 4970 nM | GI50 (M14 melanoma) 1960 nM | GI50 (CCRF-CEM leukemia) 803 nM | GI50 (SW-620 colon) 986 nM | GI50 (SN12C renal) 4900 nM | GI50 (OVCAR-8 ovarian) 14100 nM | GI50 (HT29 colon) 914 nM | GI50 (MCF7 breast) 757 nM | GI50 (HCC-2998 colon) 28100 nM | GI50 (786-0 renal) 3720 nM | GI50 (SK-MEL-28 melanoma) 1420 nM | GI50 (NCI-H23 lung) 10800 nM | GI50 (NCI-H226 lung) 6930 nM | GI50 (U251 CNS) 1810 nM | GI50 (UO-31 renal) 3370 nM | GI50 (RPMI-8226 leukemia) 3290 nM | GI50 (HOP-92 NSCLC) 5340 nM | GI50 (HL-60(TB) leukemia) 876 nM | GI50 (NCI-H522 lung) 981 nM | GI50 (LOX IMVI melanoma) 10600 nM | GI50 (EKVX NSCLC) 3270 nM | GI50 (SF-268 CNS) 2850 nM | GI50 (SR leukemia) 823 nM | GI50 (TK-10 renal) 5930 nM | GI50 (SF-295 CNS) 1330 nM | GI50 (OVCAR-5 ovarian) 10300 nM | GI50 (K-562 leukemia) 829 nM | GI50 (SNB-75 CNS) 2160 nM | GI50 (HS 578T breast) 1090 nM | GI50 (HCT-116 colon) 1240 nM | GI50 (A549 NSCLC) 2390 nM | GI50 (UACC-257 melanoma) 24900 nM | GI50 (RXF 393 renal) 1150 nM | GI50 (OVCAR-3 ovarian) 887 nM | GI50 (IGROV1 ovarian) 2350 nM | GI50 (MALME-3M melanoma) 11600 nM | GI50 (COLO 205 colon) 1230 nM | GI50 (MDA-MB-231 breast) 2870 nM | GI50 (PC-3 prostate) 1190 nM | GI50 (SK-MEL-5 melanoma) 608 nM | GI50 (CAKI-1 renal) 6170 nM | GI50 (OVCAR-4 ovarian) 8850 nM | GI50 (KM12 colon) 1090 nM | GI50 (SNB-19 CNS) 5360 nM
39300 nM: TGI (TK-10 renal)
8570 nM: TGI (SF-539 CNS)
> 20300 nM: TGI (SF-295 CNS)
25800 nM: TGI (HOP-92 NSCLC)
> 34400 nM: TGI (K-562 leukemia)
4110 nM: TGI (HL-60(TB) leukemia)
11700 nM: TGI (A498 renal)
10700 nM: TGI (SNB-75 CNS)
3090 nM: TGI (MDA-MB-435)
> 41400 nM: TGI (MDA-MB-231 breast)
active: GI50 (MDA-MB-435) 421 nM
> 36900 nM: TGI (SNB-19 CNS)
22000 nM: TGI (NCI-H522 lung)
> 23700 nM: TGI (HOP-62 NSCLC)
> 53900 nM: TGI (MOLT-4 leukemia)
> 39400 nM: TGI (SF-268 CNS)
> 60200 nM: TGI (SK-MEL-5 melanoma)
> 43400 nM: TGI (U251 CNS)
> 34800 nM: TGI (786-0 renal)
